Measurements taken from patent US6340694B1, “Diarylbenzopyran derivatives as cyclooxygenase-2 inhibitors” (Pacific Corporation, priority 1998, dated 2002).

Columns and labels:
COX-2 = molecular target: T1, COX-2 (Mus musculus, UniProt Q05769); experiment: Evaluation of COX-2's inhibition efficacy (PGE2 radioimmuno assay, LPS-induced, aspirin-pretreated peritoneal macrophages); type: cell-based, C57BL/6 mouse; details: for inhibition at 1 µg/mL: 1 μg/ml; for inhibition at 10 µg/mL: 10 μg/ml; for inhibition at 0.1 µg/mL: 0.1 μg/ml
T1 construct: endogenous in cells; host or cells: peritoneal macrophages of C57BL/6 mouse, aspirin-pretreated, LPS-induced
T1 sequence (Q05769 18-604): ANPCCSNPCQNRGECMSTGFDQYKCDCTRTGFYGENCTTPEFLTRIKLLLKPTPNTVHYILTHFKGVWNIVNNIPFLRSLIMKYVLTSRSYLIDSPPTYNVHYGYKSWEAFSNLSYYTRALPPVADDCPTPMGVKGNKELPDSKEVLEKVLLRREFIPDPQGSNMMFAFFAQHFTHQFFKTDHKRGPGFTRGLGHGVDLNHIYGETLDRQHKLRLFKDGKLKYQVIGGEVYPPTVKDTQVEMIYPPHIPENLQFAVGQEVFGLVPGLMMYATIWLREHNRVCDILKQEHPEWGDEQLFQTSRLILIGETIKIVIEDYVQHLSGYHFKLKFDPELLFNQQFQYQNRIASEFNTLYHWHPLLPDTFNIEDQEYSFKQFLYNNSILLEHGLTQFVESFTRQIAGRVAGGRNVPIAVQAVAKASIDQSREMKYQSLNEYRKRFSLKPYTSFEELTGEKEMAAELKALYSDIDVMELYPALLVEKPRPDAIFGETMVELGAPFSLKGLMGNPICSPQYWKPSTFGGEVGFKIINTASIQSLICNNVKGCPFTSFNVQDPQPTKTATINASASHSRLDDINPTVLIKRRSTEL
Description: Regarding the compounds in the above Examples and indomethacin, the inhibition efficacy of COX-2 and COX-1 are being measured by the following two methods. […] Evaluation of COX-2's Inhibition Efficacy (J. Pharmacol. Exp. […] After cleaning C57BL/6 mouse's abdomen by 70% EtOH, the skin of mouse's abdomen was eliminated cautiously not to harm peritomeum and 5 ml of cold PBS was poured into the abdominal cavity and in certain times later macrophage-bleeding abdominal-liquid was collected by syringe. […] After putting 1 ml cell suspension having cell number of 1×10^6 cells/mu into each 24-well microtiter plates, macrophages were adhered to the bottom of plate by culturing in the condition of 5% CO2/95% O2, at a temperature of 37° C. for 2 hours. Other cells not being adhered to were eliminated by washing two times with PBS. The purity of macrophages obtained through this process was identified by differential counting. […] After inducing COX-2 by LPS, the cell culture medium was eliminated and macrophages was washed two times with PBS. And 1 ml of RRPI-1640 badge was added to each well again and after treating them with sample with appropriate concentration, they were cultured at a temperature of 37i É for 10 minutes. And then treated them with arachidonic acid to make their final concentration as 10 μM and cultured them additional 10 minutes, all the supernatant liquid of reaction was obtained. The amount of PGE2 produced in the supernatant liquid of reaction was determined by the PGE2 radioimmuno assay.

COX-1 = molecular target: T2, COX-1 (Mus musculus, UniProt P22437); experiment: Evaluation of COX-1's inhibition efficacy (macrophages without aspirin and LPS pre-treatment); type: cell-based, C57BL/6 mouse; details: for inhibition at 10 µg/mL: 10 μg/ml; for inhibition at 1 µg/mL: 1 μg/ml
T2 construct: there is no pre-treatment of aspirin and LPS in the adhesion of macrophage; endogenous in cells; host or cells: peritoneal macrophages of C57BL/6 mouse, without aspirin and LPS pre-treatment
T2 sequence (P22437 27-602): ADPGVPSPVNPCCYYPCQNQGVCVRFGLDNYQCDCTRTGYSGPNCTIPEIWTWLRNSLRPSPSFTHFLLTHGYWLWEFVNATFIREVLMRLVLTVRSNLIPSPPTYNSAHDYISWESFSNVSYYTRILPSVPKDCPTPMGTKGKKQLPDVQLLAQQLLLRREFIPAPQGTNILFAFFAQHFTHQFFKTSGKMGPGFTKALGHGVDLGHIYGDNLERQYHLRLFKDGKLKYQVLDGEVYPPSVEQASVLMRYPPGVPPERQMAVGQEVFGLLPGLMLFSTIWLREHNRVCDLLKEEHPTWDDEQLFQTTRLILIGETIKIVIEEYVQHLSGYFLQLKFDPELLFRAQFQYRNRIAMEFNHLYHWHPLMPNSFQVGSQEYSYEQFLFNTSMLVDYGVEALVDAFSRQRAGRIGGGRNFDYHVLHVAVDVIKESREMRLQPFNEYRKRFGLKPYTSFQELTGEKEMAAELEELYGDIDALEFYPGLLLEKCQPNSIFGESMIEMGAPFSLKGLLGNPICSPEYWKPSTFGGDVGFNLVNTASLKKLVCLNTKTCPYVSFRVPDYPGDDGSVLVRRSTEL
Description: Regarding the compounds in the above Examples and indomethacin, the inhibition efficacy of COX-2 and COX-1 are being measured by the following two methods.
After cleaning C57BL/6 mouse's abdomen by 70% EtOH, the skin of mouse's abdomen was eliminated cautiously not to harm peritomeum and 5 ml of cold PBS was poured into the abdominal cavity and in certain times later macrophage-bleeding abdominal-liquid was collected by syringe. By adding RPMI-1640 badge containing penicillin(100 unit/mt) and streptomycin([…]) to cell pellet obtained by centrifugation of collected liquid about 5 minutes in 1500 rpm, it was disperesed and also COX-1 existing in the cell was inactivated by treating with 500 μM aspirin. After putting 1 ml cell suspension having cell number of 1×10^6 cells/mu into each 24-well microtiter plates, macrophages were adhered to the bottom of plate by culturing in the condition of 5% CO2/95% O2, at a temperature of 37° C. for 2 hours. Other cells not being adhered to were eliminated by washing two times with PBS. The purity of macrophages obtained through this process was identified by differential counting. After adding RPMI-1640 badge(normally 5×10^5 cell/ml) containing 3% right fetal blood serum to macrophage and treating it with LPS(lipopolysaccharide) to make final concentration as 10 μg/ml, it was cultured in the condition of 5% CO2, at a temperature of 37° C. for 16 hours. After inducing COX-2 by LPS, the cell culture medium was eliminated and macrophages was washed two times with PBS. And 1 ml of RRPI-1640 badge was added to each well again and after treating them with sample with appropriate concentration, they were cultured at a temperature of 37i É for 10 minutes. And then treated them with arachidonic acid to make their final concentration as 10 μM and cultured them additional 10 minutes, all the supernatant liquid of reaction was obtained. The amount of PGE2 produced in the supernatant liquid of reaction was determined by the PGE2 radioimmuno assay. The 100% COX-2's activation is referenced by the difference of the amount of PGE2 produced in the supernatant liquid of reaction between with 10 μM arachidonic acid treatment and without 10 μM arachidonic acid treatment.
2. Evaluation of COX-1's Inhibition Efficacy
Following the same procedure as the above evaluation of COX-2's inhibition efficacy, but there is no pre-treatment of aspirin and LPS in the adhesion of macrophage.

SMILES | inhibition at 1 µg/mL (COX-2) | inhibition at 10 µg/mL (COX-2) | melting point | inhibition at 10 µg/mL (COX-1) | inhibition at 0.1 µg/mL (COX-2) | inhibition at 1 µg/mL (COX-1)
Cc1ccccc1-c1c(-c2ccc(S(C)(=O)=O)cc2)oc2ccccc2c1=S [Example 41, 3-(2-Methylphenyl)-2-(4-(methylsulfonyl)phenyl)-4H-1-benzopyran-4-thione] | 36% | 96% | 234 °C | < 5% | < 5% | 
NS(=O)(=O)c1ccc(-c2oc3ccc(F)cc3c(=O)c2-c2cccc(F)c2)cc1 [Example 51, 2-(4-(Aminosulfonyl)phenyl)-6-fluoro-3-(3-fluorophenyl)-4H-1-benzopyran-4-one] | 83% | 100% | 257 to 258 °C | 6% | 56% | 
NS(=O)(=O)c1ccc(-c2oc3ccccc3c(=O)c2-c2ccc(F)cc2)cc1 [Example 52, 2-(4-(Aminosulfonyl)phenyl)-3-(4-fluorophenyl)-4H-1-benzopyran-4-one] | 96% | 99% | 267 to 268 °C | 67% | 73% | 62%
NS(=O)(=O)c1ccc(-c2oc3ccccc3c(=O)c2-c2ccccc2F)cc1 [Example 58, 2-(4-(Aminosulfonyl)phenyl)-3-(2-fluorophenyl)-4H-1-benzopyran-4-one] | 63% | 96% | 215 to 217 °C | 60% |  | 34%
NS(=O)(=O)c1ccc(-c2oc3ccc(F)cc3c(=O)c2-c2ccc(F)cc2)cc1 [Example 48, 2-(4-(Aminosulfonyl)phenyl)-6-fluoro-3-(4-fluorophenyl)-4H-1-benzopyran-4-one] | 100% |  | 224 to 226 °C | 48% | 63% | 36%
NS(=O)(=O)c1ccc(-c2oc3ccccc3c(=O)c2-c2ccccc2)cc1 [Example 53, 2-(4-(Aminosulfonyl)phenyl)-3-phenyl-4H-1-benzopyran-4-one] | 90% | 92% | 218 to 220 °C | 61% | 76% | 52%
NS(=O)(=O)c1ccc(-c2oc3ccccc3c(=O)c2-c2ccc(Cl)c(Cl)c2)cc1 [Example 57, 2-(4-(Aminosulfonyl)phenyl)-3-(3,4-dichlorophenyl)-4H-1-benzopyran-4-one] | 96% |  | 215 to 217 °C | 75% | 48% | 

Further lines, results first:

inhibition at 1 µg/mL (COX-2) | inhibition at 10 µg/mL (COX-2) | melting point | inhibition at 10 µg/mL (COX-1) | inhibition at 0.1 µg/mL (COX-2) | inhibition at 1 µg/mL (COX-1) | SMILES
51% | 86% | 226 to 227 °C | 18% |  |  | COc1ccc(-c2c(-c3ccc(S(C)(=O)=O)cc3)oc3ccccc3c2=O)cn1 [Example 18, 3-(2-Methoxy-5-pyridinyl)-2-(4-(methylsulfonyl)phenyl)-4H-1-benzopyran-4-one]
68% | 81% | 208 to 209 °C | < 5% | 34% |  | CS(=O)(=O)c1ccc(-c2oc3ccccc3c(=O)c2-c2ccccc2)cc1 [Example 2, 2-(4-(Methylsulfonyl)phenyl)-3-phenyl-4H-1-benzopyran-4-one]
< 5% | 29% | 189 to 190 °C | < 5% |  |  | CS(=O)(=O)c1ccc(-c2oc3ccccc3c(=O)c2-c2ccc(C=O)cc2)cc1 [Example 9, 3-(4-Formylphenyl)-2-(4-(methylsulfonyl)phenyl)-4H-1-benzopyran-4-one]
< 5% | 85% | 195 to 196 °C | < 5% |  |  | Cc1ccc(-c2c(-c3ccc(S(C)(=O)=O)cc3)oc3ccccc3c2=O)cn1 [Example 20, 3-(2-Methyl-5-pyridinyl)-2-(4-(methylsulfonyl)phenyl)-4H-1-benzopyran-4-one]
 | 24% | 204 to 205 °C | < 5% |  |  | CS(=O)(=O)c1ccc(-c2oc3ccccc3c(=O)c2-c2ccncc2)cc1 [Example 16, 2-(4-(Methylsulfonyl)phenyl)-3-(4-pyridinyl)-4H-1-benzopyran-4-one]
35% | 55% | 215 to 217 °C | < 5% |  |  | CS(=O)(=O)c1ccc(-c2oc3ccccc3c(=O)c2-c2ccc(C(F)(F)F)nc2)cc1 [Example 21, 2-(4-(Methylsulfonyl)phenyl)-3-(2-trifluoromethyl-5-pyridinyl)-4H-1-benzopyran-4-one]
